Data as given in patent US12152031B2, “Biodefense agents” (priority 2018, dated 2024).
In brackets after ≈: the same amount, converted by molar mass.

Columns and labels:
Type in all cases: cell-based
[1] = tested on: Bacillus anthracis; assay: microbe, parasite or virus in culture; details: for MIC: read-out: MIC range
[2] = tested on: Yersinia pestis; assay: microbe, parasite or virus in culture; details: for MIC: read-out: MIC range
[3] = tested on: Francisella tularensis; assay: microbe, parasite or virus in culture; details: for MIC: read-out: MIC range
[4] = tested on: Burkholderia mallei; assay: microbe, parasite or virus in culture; details: for MIC: read-out: MIC range
[5] = tested on: Burkholderia pseudomallei; assay: microbe, parasite or virus in culture; details: for MIC50 / MIC90 / MIC: Burkholderia pseudomallei; for MIC: read-out: MIC range
[6] = tested on: Enterobacteriaceae
[7] = tested on: E. coli DH10B; assay: microbe, parasite or virus in culture; details: Escherichia coli
[8] = tested on: E. coli DH10B mcr-1 transformant; assay: microbe, parasite or virus in culture; details: Escherichia coli
[9] = tested on: P. aeruginosa; assay: microbe, parasite or virus in culture; details: Pseudomonas aeruginosa, read-out: MICs

| SMILES | MIC50 [1] | MIC90 [1] | MIC [1] | MIC50 [2] | MIC90 [2] | MIC [2] | MIC50 [3] | MIC90 [3] | MIC [3] | MIC50 [4] | MIC90 [4] | MIC [4] | MIC50 [5] | MIC90 [5] | MIC [5] | MIC range [5] | peak of unimodal MIC distribution [6] | MIC [7] | MIC [8] | MIC [9] |
| --- | --- | --- | --- | --- | --- | --- | --- | --- | --- | --- | --- | --- | --- | --- | --- | --- | --- | --- | --- | --- |
| C=C[C@H](N)CCCc1cc(Cl)c(F)c(-c2cc3cn(-c4ccc([C@@H]5CCC[C@@H](CCNC(C)=N)N5)c(SC)c4)c(=O)nc3[nH]2)c1 [RX-D7] | ≤ 0.008 mg/L | 0.03 mg/L (≈ 0.0461 µM) | 0.008 to 0.06 mg/L (≈ 0.0123 to 0.0923 µM) | 0.25 mg/L (≈ 0.384 µM) | 0.5 mg/L (≈ 0.769 µM) | 0.03 to 1 mg/L (≈ 0.0461 to 1.54 µM) | 0.12 mg/L (≈ 0.185 µM) | 0.25 mg/L (≈ 0.384 µM) | 0.06 to 0.5 mg/L (≈ 0.0923 to 0.769 µM) | 0.25 mg/L (≈ 0.384 µM) | 0.25 mg/L (≈ 0.384 µM) | 0.06 to 0.5 mg/L (≈ 0.0923 to 0.769 µM) | 4 mg/L (≈ 6.15 µM) | 8 mg/L (≈ 12.3 µM) |  |  |  |  |  |  |
| CC(=N)NCC[C@@H]1CCC[C@@H](c2ccc(-n3cc4cc(-c5cc(CCC[C@H](C)N)cc(Cl)c5F)[nH]c4nc3=O)cc2)N1CCCF [RX-D3] | 0.12 mg/L (≈ 0.184 µM) | 0.12 mg/L (≈ 0.184 µM) | 0.03 to 0.25 mg/L (≈ 0.046 to 0.383 µM) | 0.12 mg/L (≈ 0.184 µM) | 0.25 mg/L (≈ 0.383 µM) | 0.06 to 0.5 mg/L (≈ 0.092 to 0.767 µM) | 0.12 mg/L (≈ 0.184 µM) | 0.25 mg/L (≈ 0.383 µM) | 0.015 to 2 mg/L (≈ 0.023 to 3.07 µM) | 0.12 mg/L (≈ 0.184 µM) | 0.25 mg/L (≈ 0.383 µM) | 0.03 to 0.25 mg/L (≈ 0.046 to 0.383 µM) | 2 mg/L (≈ 3.07 µM) | 4 mg/L (≈ 6.13 µM) | 0.5 to 8 mg/L (≈ 0.767 to 12.3 µM) |  |  |  |  |  |
| CC(C)(O/N=C(\C(=O)N[C@@H]1C(=O)N2C(C(=O)[O-])=C(C[n+]3ccccc3)CS[C@H]12)c1csc(N)n1)C(=O)O [Ceftazidime, ceftazidime, reference compound] |  |  |  |  |  |  |  |  |  |  |  |  | 1 mg/L (≈ 1.83 µM) | 1 mg/L (≈ 1.83 µM) |  | ≤0.03 to 32 mg/L |  |  |  |  |
| C=CCN1[C@H](CCNC(C)=N)CCC[C@H]1c1ccc(-n2cc3cc(-c4cc(CCC[C@H](C)N)cc(Cl)c4F)[nH]c3nc2=O)cc1 [RX-D10] | 0.12 mg/L (≈ 0.19 µM) | 0.25 mg/L (≈ 0.395 µM) | 0.008 to 0.25 mg/L (≈ 0.0127 to 0.395 µM) | 0.12 mg/L (≈ 0.19 µM) | 0.5 mg/L (≈ 0.791 µM) | 0.03 to 0.5 mg/L (≈ 0.0475 to 0.791 µM) | 0.12 mg/L (≈ 0.19 µM) | 0.5 mg/L (≈ 0.791 µM) | 0.03 to 2 mg/L (≈ 0.0475 to 3.16 µM) | 0.12 mg/L (≈ 0.19 µM) | 0.25 mg/L (≈ 0.395 µM) | 0.06 to 0.25 mg/L (≈ 0.0949 to 0.395 µM) | 2 mg/L (≈ 3.16 µM) | 4 mg/L (≈ 6.33 µM) | 0.25 to 8 mg/L (≈ 0.395 to 12.7 µM) |  |  |  |  |  |
| CC(=N)NCC[C@@H]1CCC[C@@H](c2ccc(-n3cc4cc(-c5cc(CCC[C@@H](N)CO)cc(Cl)c5F)[nH]c4nc3=O)cc2F)N1 [RX-04C, N-(2-((2S,6S)-6-(4-(6-(5-((R)-4-amino-5-hydroxypentyl)-3-chloro-2-fluorophenyl)-2-oxo-2,7-dihydro-3H-pyrrolo[2,3-d]pyrimidin-3-yl)-2-fluorophenyl)piperidin-2-yl)ethyl)acetimidamide] |  |  |  |  |  |  |  |  |  |  |  |  |  |  |  |  | 2 mg/L | 0.5 mg/L (≈ 0.799 µM) | 0.5 mg/L (≈ 0.799 µM) | ≥ 16 mg/L |
| CC(=N)NCC[C@@H]1CCC[C@@H](c2ccc(-n3cc4cc(-c5cc(CCC[C@H](C)N)cc(Cl)c5F)[nH]c4nc3=O)cc2C)N1 [RX-D8] | ≤ 0.008 mg/L | ≤ 0.008 mg/L | 0.008 to 0.015 mg/L (≈ 0.0132 to 0.0247 µM) | 0.25 mg/L (≈ 0.412 µM) | 0.5 mg/L (≈ 0.825 µM) | 0.06 to 0.5 mg/L (≈ 0.099 to 0.825 µM) | 0.03 mg/L (≈ 0.0495 µM) | 0.06 mg/L (≈ 0.099 µM) | 0.004 to 0.12 mg/L (≈ 0.0066 to 0.198 µM) | 0.06 mg/L (≈ 0.099 µM) | 0.12 mg/L (≈ 0.198 µM) | 0.03 to 0.25 mg/L (≈ 0.0495 to 0.412 µM) | 8 mg/L (≈ 13.2 µM) | > 8 mg/L |  |  |  |  |  |  |
| CSc1cc(-n2cc3cc(-c4cc(CCC[C@@H](N)C5CC5)cc(Cl)c4F)[nH]c3nc2=O)ccc1[C@@H]1CCC[C@@H](CCNC(C)=N)N1 [RX-04B, N-(2-((2S,6S)-6-(4-(6-(5-((R)-4-amino-4-cyclopropylbutyl)-3-chloro-2-fluorophenyl)-2-oxo-2,7-dihydro-3H-pyrrolo[2,3-d]pyrimidin-3-yl)-2-(methylthio)phenyl)piperidin-2-yl)ethyl)acetimidamide] |  |  |  |  |  |  |  |  |  |  |  |  |  |  |  |  | 1 mg/L | 0.5 mg/L (≈ 0.753 µM) | 0.5 mg/L (≈ 0.753 µM) |  |
| CC(=N)NCC[C@@H]1CSC[C@@H](c2ccc(-n3cc4cc(-c5cc(CCC[C@H](C)N)cc(Cl)c5F)[nH]c4nc3=O)cc2)N1 [RX-D9] | 0.06 mg/L (≈ 0.0983 µM) | 0.12 mg/L (≈ 0.197 µM) | 0.008 to 0.12 mg/L (≈ 0.0131 to 0.197 µM) | 0.12 mg/L (≈ 0.197 µM) | 0.25 mg/L (≈ 0.41 µM) | 0.06 to 0.5 mg/L (≈ 0.0983 to 0.819 µM) | 0.12 mg/L (≈ 0.197 µM) | 0.25 mg/L (≈ 0.41 µM) | 0.03 to 2 mg/L (≈ 0.0492 to 3.28 µM) | 0.12 mg/L (≈ 0.197 µM) | 0.25 mg/L (≈ 0.41 µM) | 0.03 to 0.5 mg/L (≈ 0.0492 to 0.819 µM) | 2 mg/L (≈ 3.28 µM) | 4 mg/L (≈ 6.56 µM) | 0.5 to 4 mg/L (≈ 0.819 to 6.56 µM) |  |  |  |  |  |
